According to US20250214925A1, “CATIONIC LIPID, LIPOSOME, LIPID NANOPARTICLE, AND USE” (CARCELL BIOPHARMA LTD., priority 2022, published 2025):

Assays:
[1] = mRNA encapsulation efficiency of LNP by Ribogreen assay; type: physicochemical; details: LNP: 50% cationic lipid, 38.5% cholesterol, 10% DSPC, 1.5% DMG-PEG2000; Ffluc mRNA
Method: (§1) 1. The cationic lipid (50 mg/mL) prepared in the above examples of the present disclosure, cholesterol (20 mg/mL), DSPC (20 mg/mL) and DMG-PEG2000 (20 mg/mL) were dissolved in ethanol, and the solution was placed in a 55° C. metal thermostatic bath as needed to aid dissolution, to obtain a lipid mixture with the following molar composition: 1.5% DMG-PEG2000, 50% cationic lipid, 38.5% cholesterol, and 10% DSPC.
(§2) 2. The mRNA encoding Ffluc was diluted with 10 mM pH 4.0 citrate buffer to prepare a 0.2 mg/mL mRNA solution.
(§3) 3. The lipid mixture prepared in step 1 was mixed with the mRNA solution prepared in step 2 using a syringe pump with a tee at a total flow rate of 40 mL/min.
(§4) 4. The LNP mixture was collected after the three-way mixing and placed in a dialysis bag with a molecular weight cut-off of 100 KDa.
(§5) 5. The LNP mixture was dialyzed overnight against 50 mM Tris-buffered saline, pH 7.4.
(§6) 6. Sieving, and subsequent measurement of the sieved LNP to measure the PDI of the LNP by dynamic laser light scattering; to measure the mRNA encapsulation efficiency and concentration by Ribogreen assay; and to measure the pKa by TNS-α assay.

mice = assay: In vivo delivery of Ffluc mRNA LNP in mice, intravenous administration, luminescence relative to MC3; design: species or system mice (female Balb/C); details: fold change in luminescence intensity relative to MC3; 0.06 mg/kg tail vein; 6 h after injection
Method: The prepared encapsulation solution was applied to mice in the following manner, and its delivery efficiency in mice was tested. Among them, DLin-MC3-DMA (MC3) was a cationic liposome for delivering small nucleic acids that was approved by the FDA for marketing in 2018, which has high nucleic acid drug delivery efficiency and biosafety, and was usually used as the industry gold standard in the screening process of cationic lipids. In the evaluation of mice experiments, the ratio of nucleic acid delivery efficiency normalized to MC3 was greater than 0.1, which was considered to be a cationic lipid with high delivery efficiency.
1. The LNP solution was diluted with 50 mM TBS, pH 7.4 to a concentration of 0.1 mg/mL mRNA.
2. The mice involved in this study were female Balb/C, weighing 18-22 g, 6-8 weeks old, with 5 mice in each group.
3. The dosing solution was kept at 4° C. prior to injection.
4. Each mice received 0.06 mg/kg via tail vein injection.
5. The mice were injected intraperitoneally with 200 μL of 1.5 mg/mL D-luciferin solution 6 h after injection.
6. The in vivo luminescence images of the mice were obtained using the IVIS system (Aniview).
7. The luminescence intensity of each mice was measured using Aniview software.
8. MC3 lipid nanoparticles were used as a positive control. The in vivo efficacy of each cationic lipid tested was recorded as the fold change in luminescence intensity relative to MC3 (ratio normalized to MC3).

[2] = LNP size and PDI by dynamic laser light scattering; type: physicochemical; details: LNP: 50% cationic lipid, 38.5% cholesterol, 10% DSPC, 1.5% DMG-PEG2000; Ffluc mRNA
Method: as §1, §2, §3, §4, §5, §6

Compound	Encapsulation Rate [1] [%]	In Vivo Efficacy Normalized To Mc3 In Mice (Intravenous Injection) (mice)	PDI [2]	Size (nm) [2] [nm]
CCCCCCCC/C(=C\C(=O)OCCCCN(CCCO)CCCCOC(=O)/C=C(/CCCCCCC)CCCCCCCC)CCCCCCC [CPL-032, ((3-hydroxypropyl)azanediyl)bis(butane-4,1-diyl)(2Z,2′Z)-bis(3-heptylundec-2-enoate)]	91	1.18	0.1692	90.11
CCCCC/C=C\C/C=C\CCCCCCCC(=O)OCC(COC(=O)/C=C(\CCCCC)CCCCCCCCCC)COC(=O)OCC1CCCN(C)C1 (centres unmarked) [CPL-378, 3-((((1-methylpiperidin-3-yl)methoxy)carbonyl)oxy)-2-((((E)-3-_pentyltridec-2-enoyl)oxy)methyl)propyl(9Z,12Z)-octadeca-9,12-dienoate]	96	0.43	0.1099	82.38
CCCCC/C=C\C/C=C\CCCCCCCC(=O)OCC(COC(=O)/C=C(\CCCCCC)CCCCCCCC)COC(=O)OCCC1CCN(C)CC1 (centres unmarked) [CPL-292, 3-(((E)-3-hexylundec-2-enoyl)oxy)-2-((((2-(1-methylpiperidin-4-yl)ethoxy)carbonyl)oxy)methyl)propyl(9Z,12Z)-octadeca-9,12-dienoate]	97	0.27	0.1816	90.31
CCCCCCC(=CC(=O)OCCCCCN(CCCO)CCCCCOC(=O)C=C(CCCCCC)CCCCCC)CCCCCC [CPL-049, ((3-hydroxypropyl)azanediyl)bis(pentane-5,1-diyl)(2E,2′E)-bis(3-hexylnon-2-enoate)]	90	1.88	0.1651	101.6
CCCCCCCC/C(=C/C(=O)OCCCCCCN(CCCO)CCCCCCOC(=O)/C=C(\CCCCC)CCCCCCCC)CCCCC [CPL-047, ((3-hydroxypropyl)azanediyl)bis(hexane-6,1-diyl) (2E,2′E)-bis(3-pentylundec-2-enoate)]	96	1.59	0.25	114.7
CCCCC/C=C\C/C=C\CCCCCCCC(=O)OCC(COC(=O)C=C(CCCCCCCCC)CCCCCCCCC)COC(=O)OCCCN(CC)CC (centres unmarked) [CPL-001-01, 3-(((3-(diethylamino)propoxy)carbonyl)oxy)-2-(((3-nonyldodec-2-enoyl)oxy)methyl)propyl(9Z,12Z)-octadeca-9,12-dienoate]	96	2.00	0.0594	62.9
CCCCC/C=C\C/C=C\CCCCCCCC(=O)OCC(COC(=O)/C=C(\CCCCC)CCCCCCCC)COC(=O)OCCCN1CCCCC1 (centres unmarked) [CPL-421, 3-(((E)-3-pentylundec-2-enoyl)oxy)-2-((((3-(piperidin-1-yl)propoxy)carbonyl)oxy)methyl)propyl(9Z,12Z)-octadeca-9,12-dienoate]	94	0.37	0.1904	82.69
CCCCC/C=C\C/C=C\CCCCCCCC(=O)OCC(COC(=O)/C=C(/CCCC)CCCCCC)COC(=O)OCC1CCCN(C)C1 (centres unmarked) [CPL-372, 3-(((Z)-3-butylnon-2-enoyl)oxy)-2-(((((1-methylpiperidin-3-yl)methoxy)carbonyl)oxy)methyl)propyl(9Z,12Z)-octadeca-9,12-dienoate]	98	1.01	0.1182	90.88
CCCCC/C=C\C/C=C\CCCCCCCC(=O)OCC(COC(=O)/C=C(\CCCCCCC)CCCCCCCCCC)COC(=O)OCCCN1CCN(C)CC1 (centres unmarked) [CPL-407, 3-(((E)-3-heptyltridec-2-enoyl)oxy)-2-((((3-(4-methylpiperazin-1-yl)propoxy)carbonyl)oxy)methyl)propyl(9Z,12Z)-octadeca-9,12-dienoate]	97	0.21	0.0562	98.86
CCCCC/C=C\C/C=C\CCCCCCCC(=O)OCC(COC(=O)/C=C(\CCCC)CCCCC)COC(=O)OCCCN(C)C (centres unmarked) [CPL-221, 3-(((E)-3-butyloct-2-enoyl)oxy)-2-((((3-(dimethylamino)propoxy)carbonyl)oxy)methyl)propyl(9Z,12Z)-octadeca-9,12-dienoate]	96	0.44	0.0453	82.01
CCCCCCCCCC/C(=C/C(=O)OCCCCCCCCCCN(CCCO)CCCCCOC(=O)/C=C(\CCCC)CCCCCCCCCC)CCC [CPL-1093, 10-(((5-(E)-3-butyltridec-2-enoyl)oxy)pentyl)((3-hydroxypropyl)amino)decyl(E)-3-propyl-2-tridecenoate]	99	1.55	0.21	112.08
CCCCC/C=C\C/C=C\CCCCCCCC(=O)OCC(COC(=O)/C=C(\CCCCCC)CCCCCCC)COC(=O)OCC1CCCN(C)C1 (centres unmarked) [CPL-383]	97	0.80	0.1733	99.82
CCCCC/C=C\C/C=C\CCCCCCCC(=O)OCC(COC(=O)/C=C(\CCCC)CCCCCCC)COC(=O)OCC1CCN(C)C1 (centres unmarked) [CPL-338, 3-(((E)-3-butyldec-2-enoyl)oxy)-2-(((((1-methylpyrrolidin-3-yl)methoxy)carbonyl)oxy)methyl)propyl(9Z,12Z)-octadeca-9,12-dienoate]	99	0.52	0.1084	83.4
CCCCCCCC/C(=C/C(=O)OCCCCCCN(CCCO)CCCCCCOC(=O)/C=C(\CCC)CCCCCCCC)CCC [CPL-061, ((3-hydroxypropyl)azanediyl)bis(hexane-6,1-diyl) (2E,2′E)-bis(3-propylundec-2-enoate)]	94	1.06	0.1612	94.04
((3-hydroxypropyl)azanediyl)bis(butane-4,1-diyl)(2E,2′E)-bis(3-butylundec-2-enoate) [CPL-021]	95	0.75	0.0729	69.64
CCCCC/C=C\C/C=C\CCCCCCCC(=O)OCC(COC(=O)/C=C(\CCCCC)CCCCCC)COC(=O)OCCCN(CC)CC (centres unmarked) [CPL-266, 3-(((3-(diethylamino)propoxy)carbonyl)oxy)-2-((((E)-3-pentylnon-2-enoyl)oxy)methyl)propyl(9Z,12Z)-octadeca-9,12-dienoate]	97	0.72	0.0481	68.11
CCCCC/C=C\C/C=C\CCCCCCCC(=O)OCC(COC(=O)/C=C(\CCCC)CCCCCCCC)COC(=O)OCC1CCN(C)C1 (centres unmarked) [CPL-329, 3-(((E)-3-butylundec-2-enoyl)oxy)-2-(((((1-methylpyrrolidin-3-yl)methoxy)carbonyl)oxy)methyl)propyl(9Z,12Z)-octadeca-9,12-dienoate]	97	0.33	0.0596	75.57
